Reference: ChEMBL document CHEMBL4219271, “Synthesis and anti-proliferative activity of allogibberic acid derivatives containing 1,2,3-triazole pharmacophore” (Bioorg Med Chem Lett, 2018)

Legend:
[1] = test system: HL-60; test: Cytotoxicity against human HL60 cells assessed as decrease in cell viability after 4 days by MTT assay; assay type: functional, cell-based; details: HL-60, 96 h
[2] = test system: SMMC-7721; test: Cytotoxicity against human SMMC7721 cells assessed as decrease in cell viability after 4 days by MTT assay; assay type: functional, cell-based; details: SMMC-7721, 96 h
[3] = test system: A549; test: Cytotoxicity against human A549 cells assessed as decrease in cell viability after 4 days by MTT assay; assay type: functional, cell-based; details: A549, 96 h
[4] = test system: MCF7; test: Cytotoxicity against human MCF7 cells assessed as decrease in cell viability after 4 days by MTT assay; assay type: functional, cell-based; details: MCF7, 96 h
[5] = test system: SW480; test: Cytotoxicity against human SW480 cells assessed as decrease in cell viability after 4 days by MTT assay; assay type: functional, cell-based; details: SW480, 96 h
[6] = test system: MCF7; test: Potency index, ratio of cisplatin IC50 to compound IC50 for human MCF7 cells; assay type: functional
[7] = test system: SW480; test: Potency index, ratio of cisplatin IC50 to compound IC50 for human SW480 cells; assay type: functional

C=C1C(=O)[C@]23C[C@@]1(O)CC[C@H]2c1ccc(OS(=O)(=O)c2ccc(C)cc2)c(C)c1[C@@H]3Cn1cc(-c2ccc(Cl)cc2)nn1
IC50 [1]: 1260 nM | IC50 [2]: 6180 nM | IC50 [3]: 1870 nM | IC50 [4]: 1440 nM | IC50 [5]: 2390 nM | Ratio IC50 [6]: 8

C=C1C(=O)[C@]23C[C@@]1(O)CC[C@H]2c1ccc(O)c(C)c1[C@@H]3Cn1cc(-c2ccc(Cl)cc2)nn1
IC50 [1]: 690 nM | IC50 [2]: 670 nM | IC50 [3]: 640 nM | IC50 [4]: 2470 nM | IC50 [5]: 280 nM | Ratio IC50 [7]: 29

C=C1C(=O)[C@]23C[C@@]1(O)CC[C@H]2c1ccc(OS(=O)(=O)c2ccc(C)cc2)c(C)c1[C@@H]3Cn1cc(-c2ccc(C)cc2)nn1
IC50 [1]: 1110 nM | IC50 [2]: 4410 nM | IC50 [3]: 1830 nM | IC50 [4]: 320 nM | IC50 [5]: 1460 nM | Ratio IC50 [6]: 36

C=C1C(=O)[C@]23C[C@@]1(O)CC[C@H]2c1ccc(O)c(C)c1[C@@H]3Cn1cc(-c2ccc(Br)cc2)nn1
IC50 [1]: 560 nM | IC50 [2]: 1300 nM | IC50 [3]: 1140 nM | IC50 [4]: 270 nM | IC50 [5]: 310 nM | Ratio IC50 [7]: 36

C=C1C(=O)[C@]23C[C@@]1(O)CC[C@H]2c1ccc(O)c(C)c1[C@@H]3Cn1cc(-c2ccc(C)cc2)nn1
IC50 [1]: 830 nM | IC50 [2]: 920 nM | IC50 [3]: 1260 nM | IC50 [4]: 370 nM | IC50 [5]: 330 nM | Ratio IC50 [7]: 25

C=C1C(=O)[C@]23C[C@@]1(O)CC[C@H]2c1ccc(O)c(C)c1[C@@H]3Cn1cc(-c2ccc(OC)cc2)nn1
IC50 [1]: 1150 nM | IC50 [2]: 860 nM | IC50 [3]: 1250 nM | IC50 [4]: 1710 nM | IC50 [5]: 220 nM | Ratio IC50 [7]: 39

C=C1C(=O)[C@]23C[C@@]1(O)CC[C@H]2c1ccc(O)c(C)c1[C@@H]3Cn1cc(-c2ccccc2)nn1
IC50 [1]: 750 nM | IC50 [2]: 1320 nM | IC50 [3]: 1160 nM | IC50 [4]: 1740 nM | IC50 [5]: 260 nM | Ratio IC50 [7]: 31

C=C1C(=O)[C@]23C[C@@]1(O)CC[C@H]2c1ccc(OS(=O)(=O)c2ccc(C)cc2)c(C)c1[C@@H]3Cn1cc(-c2ccc(OC)cc2)nn1
IC50 [1]: 1020 nM | IC50 [2]: 1720 nM | IC50 [3]: 1470 nM | IC50 [4]: 310 nM | IC50 [5]: 1640 nM | Ratio IC50 [6]: 37

C=C1C(=O)[C@]23C[C@@]1(O)CC[C@H]2c1ccc(O)c(C)c1[C@@H]3Cn1cc(-c2ccccn2)nn1
IC50 [1]: 1970 nM | IC50 [2]: 1270 nM | IC50 [3]: 1570 nM | IC50 [4]: 2240 nM | IC50 [5]: 410 nM | Ratio IC50 [7]: 20

C=C1C(=O)[C@]23C[C@@]1(O)CC[C@H]2c1ccc(O)c(C)c1[C@@H]3Cn1cc(-c2ccc(C(F)(F)F)cc2)nn1
IC50 [1]: 720 nM | IC50 [2]: 1440 nM | IC50 [3]: 1110 nM | IC50 [4]: 1840 nM | IC50 [5]: 370 nM | Ratio IC50 [7]: 22

C=C1C(=O)[C@]23C[C@@]1(O)CC[C@H]2c1ccc(OS(=O)(=O)c2ccc(C)cc2)c(C)c1[C@@H]3Cn1cc(-c2ccc(Br)cc2)nn1
IC50 [1]: 1020 nM | IC50 [2]: 4320 nM | IC50 [3]: 1630 nM | IC50 [4]: 250 nM | IC50 [5]: 1590 nM | Ratio IC50 [6]: 46

C=C1C(=O)[C@]23C[C@@]1(O)CC[C@H]2c1ccc(OS(=O)(=O)c2ccc(C)cc2)c(C)c1[C@@H]3Cn1cc(-c2ccccn2)nn1
IC50 [1]: 1810 nM | IC50 [2]: 2830 nM | IC50 [3]: 2310 nM | IC50 [4]: 320 nM | IC50 [5]: 1970 nM | Ratio IC50 [6]: 36

Cc1ccc(S(=O)(=O)Oc2ccc3c(c2C)[C@H](Cn2cc(-c4ccc(C(F)(F)F)cc4)nn2)[C@@]24CC(=O)[C@@](C)(CC[C@@H]32)C4)cc1
IC50 [1]: > 20000 nM | IC50 [2]: > 20000 nM | IC50 [3]: > 20000 nM | IC50 [4]: > 20000 nM | IC50 [5]: > 20000 nM

C=C1C[C@]23C[C@@]1(O)CC[C@@H]2c1cccc(C)c1[C@@H]3Cn1cc(-c2ccccn2)nn1
IC50 [1]: > 20000 nM | IC50 [2]: > 20000 nM | IC50 [3]: > 20000 nM | IC50 [4]: > 20000 nM | IC50 [5]: > 20000 nM

Cc1c(O)ccc2c1[C@H](Cn1cc(-c3ccc(Cl)cc3)nn1)[C@@]13CC(=O)[C@@](C)(CC[C@@H]21)C3
IC50 [1]: > 20000 nM | IC50 [2]: > 20000 nM | IC50 [3]: > 20000 nM | IC50 [4]: > 20000 nM | IC50 [5]: > 20000 nM

C=C1C[C@]23C[C@@]1(O)CC[C@H]2c1cc(Br)c(O)c(C)c1[C@@H]3Cn1cc(-c2ccc(OC)cc2)nn1
IC50 [1]: > 20000 nM | IC50 [2]: > 20000 nM | IC50 [3]: > 20000 nM | IC50 [4]: > 20000 nM | IC50 [5]: > 20000 nM

C=C1C[C@]23C[C@@]1(O)CC[C@@H]2c1cccc(C)c1[C@@H]3Cn1cc(-c2ccc(C)cc2)nn1
IC50 [1]: > 20000 nM | IC50 [2]: > 20000 nM | IC50 [3]: > 20000 nM | IC50 [4]: > 20000 nM | IC50 [5]: > 20000 nM

C=C1C[C@]23C[C@@]1(O)CC[C@@H]2c1cccc(C)c1[C@@H]3Cn1cc(-c2ccc(C(F)(F)F)cc2)nn1
IC50 [1]: > 20000 nM | IC50 [2]: > 20000 nM | IC50 [3]: > 20000 nM | IC50 [4]: > 20000 nM | IC50 [5]: > 20000 nM

C=C1C[C@]23C[C@@]1(O)CC[C@H]2c1cc(Br)c(O)c(C)c1[C@@H]3Cn1cc(-c2ccccn2)nn1
IC50 [1]: > 20000 nM | IC50 [2]: > 20000 nM | IC50 [3]: > 20000 nM | IC50 [4]: > 20000 nM | IC50 [5]: > 20000 nM

Cc1ccc(S(=O)(=O)Oc2ccc3c(c2C)[C@H](Cn2cc(-c4ccc(F)cc4)nn2)[C@@]24CC(=O)[C@@](C)(CC[C@@H]32)C4)cc1
IC50 [1]: > 20000 nM | IC50 [2]: > 20000 nM | IC50 [3]: > 20000 nM | IC50 [4]: > 20000 nM | IC50 [5]: > 20000 nM

C=C1C(=O)[C@]23C[C@@]1(O)CC[C@H]2c1ccc(OS(=O)(=O)c2ccc(C)cc2)c(C)c1[C@@H]3Cn1cc(-c2ccc(F)cc2)nn1
IC50 [1]: 1290 nM | IC50 [2]: 4280 nM | IC50 [3]: 1950 nM | IC50 [4]: 330 nM | IC50 [5]: 1630 nM | Ratio IC50 [6]: 35
